For test [1], the system named is protein kinase D (PKD). The conditions noted are these: literature (Gschwendt et al., 1996; Sharlow et al., 2008); cited from earlier work.
The subject of test [2] is IFNAR1. As to the kind of experiment: Cycloheximide chase of IFNAR1 degradation. The conditions noted are these: HeLa cells, CHX chase in the presence of IFN-α. Format: cell-based, human. The method, then:
(§1) Immunoprecipitation and immunoblotting procedures are described elsewhere (Fuchs et al, 1999, Oncogene 18:2039-2046). Protein degradation was carried out by cycloheximide (CHX, used at 20 μg/ml) chase. IFNAR1 internalization assay was carried out using the Fluorescence-based assay as described elsewhere (Kumar et al., 2007, J Cell Biol 179:935-950). BAY 43-9006 was obtained as a gift. Recombinant human IFN-a2 (Roferon) was purchased from Roche. Other reagents or inhibitors were purchased from commercial vendors.
Antibodies against Flag, GST and j3-actin (Sigma), HA (12CA, Roche), CK1α, PICD1/2 (PKCμ), PKD3 (PKCν), Tyk2, intracellular domain of hIFNAR1 and PKR, (Santa Cruz), anti-pan-phospho-tyrosine (4G10), phospho-Stat1 and Stat1 (Cell signaling), phospho-S710 of PKD2 (Biosource), PKD2 (Bethyl Laboratories), mIFNAR1 (Leinco) and ubiquitin (FK2, Biomol) were purchased. AA3, GB8 and EAl2 antibodies which recognize endogenous IFNAR1 (Goldman et al., 1999) and antibodies against IFNAR1 phosphorylated on Ser535 (pS535; (Kumar et al., 2004, J Biol Chem 279:46614-46620)) were described previously. Secondary antibodies conjugated to horseradish peroxidase were purchased from Chemicon and LI-COR. […] Immunoblot detection and quantification were carried out using the LI-COR's Odyssey Infrared Imaging System.

For test [3], the system named is 2fTGH cells. Format: cell-based, human. The conditions noted are these: inhibitor pre-treatment 1 h, IFN-α pulse 1-2 h, read 24 h later.
Test [4] relates to IFNAR1 Ser535 phosphorylation. As to the kind of experiment: IFN-α-induced Ser535 (degron) phosphorylation of IFNAR1 in cells, IP-immunoblot with anti-pS535. Format: cell-based, human. The method, then:
as §1
Antibodies against Flag, GST and j3-actin (Sigma), HA (12CA, Roche), CK1α, PICD1/2 (PKCμ), PKD3 (PKCν), Tyk2, intracellular domain of hIFNAR1 and PKR, (Santa Cruz), anti-pan-phospho-tyrosine (4G10), phospho-Stat1 and Stat1 (Cell signaling), phospho-S710 of PKD2 (Biosource), PKD2 (Bethyl Laboratories), mIFNAR1 (Leinco) and ubiquitin (FK2, Biomol) were purchased. AA3, GB8 and EAl2 antibodies which recognize endogenous IFNAR1 (Goldman et al., 1999) and antibodies against IFNAR1 phosphorylated on Ser535 (pS535; (Kumar et al., 2004, J Biol Chem 279:46614-46620)) were described previously. Secondary antibodies conjugated to horseradish peroxidase were purchased from Chemicon and LI-COR. Immunoprecipitation and immunoblotting procedures are described elsewhere (Fuchs et al, 1999, Oncogene 18:2039-2046). Protein degradation was carried out by cycloheximide (CHX) chase in the presence of CHX (20 μg/ml). Immunoblot detection and quantification were carried out using the LI-COR's Odyssey Infrared Imaging System.

Test [5] has as its system Stat1. As to the kind of experiment: Stat1 tyrosine phosphorylation in response to IFN-α, immunoblot. Format: cell-based, human. The settings on record: HeLa cells, inhibitor pre-treatment 1 h, IFN-α pulse 15 min.
In test [6] the target is T1, PKD2 (Homo sapiens, UniProt Q9BZL6).
T1 sequence (Q9BZL6 1-878): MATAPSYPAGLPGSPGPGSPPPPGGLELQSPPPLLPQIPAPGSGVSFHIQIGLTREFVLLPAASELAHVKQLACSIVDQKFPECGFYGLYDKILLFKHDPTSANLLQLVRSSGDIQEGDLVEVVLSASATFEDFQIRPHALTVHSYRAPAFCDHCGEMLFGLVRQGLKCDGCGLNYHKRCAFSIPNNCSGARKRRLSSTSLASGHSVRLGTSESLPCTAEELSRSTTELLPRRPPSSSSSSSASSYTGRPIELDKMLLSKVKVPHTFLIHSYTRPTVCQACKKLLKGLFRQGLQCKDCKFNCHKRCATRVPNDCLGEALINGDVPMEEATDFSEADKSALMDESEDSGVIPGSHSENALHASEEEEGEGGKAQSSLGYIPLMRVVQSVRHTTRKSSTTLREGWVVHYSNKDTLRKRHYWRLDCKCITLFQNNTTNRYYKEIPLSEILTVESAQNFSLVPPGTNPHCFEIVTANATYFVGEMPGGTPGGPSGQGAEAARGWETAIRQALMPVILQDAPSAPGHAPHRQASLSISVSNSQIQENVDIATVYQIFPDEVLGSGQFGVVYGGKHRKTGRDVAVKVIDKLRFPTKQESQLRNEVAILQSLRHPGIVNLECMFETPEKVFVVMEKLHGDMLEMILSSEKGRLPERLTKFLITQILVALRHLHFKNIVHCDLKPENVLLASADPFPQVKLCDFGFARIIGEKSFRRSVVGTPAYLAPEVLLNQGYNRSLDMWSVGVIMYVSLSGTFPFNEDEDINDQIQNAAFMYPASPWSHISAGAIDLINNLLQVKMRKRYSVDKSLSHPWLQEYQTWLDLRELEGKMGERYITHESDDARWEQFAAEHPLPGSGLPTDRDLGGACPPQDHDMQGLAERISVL
As to the kind of experiment: In vitro phosphorylation of GST-IFNAR1 on Ser535 by purified GST-PKD2. Further details: made in house; host or cells: 293T cells (human), transient expression, glutathione pull-down. Format: biochemical. The conditions noted are these: Gö6976 20-200 nM. The protocol: In vitro phosphorylation of GST-IFNAR1 by cell extracts or PKD preparations (via immunopurification or GST pulldown) was carried out in kinase buffer (50 mM Tris-HCl pH 7.4, 10 mM MgC12, and 2 mM DTT) with either 0.2 mM of unlabeled ATP or 10 μCi of γ-32P ATP for 20 min at 30° C. The products of this reaction were separated by SDS-PAGE and analyzed either by immunoblotting using anti-pS535 antibody or by autoradiography.

For test [7], the system named is ligand-inducible IFNAR1 degron kinase activity. As to the kind of experiment: Phosphorylation-binding assay: GST-IFNAR1 phosphorylated by CK1α-depleted lysates of IFN-α-treated cells, then binding of 35S-labeled β-Trcp2. Format: biochemical, human. The conditions noted are these: inhibitor added in vitro: H89 200 nM, BAY43-9006 50 nM, Bis-I 25 nM, Gö6976 25 nM, LY294002 1.5 μM, SP600125 100 nM, D4476 400 nM, SB203580 100 nM. The method, then: For some binding assays, the lysates from 293T cells (treated for various tunes with IFN-α, 2000 IU/mL) were depleted of CK1α (as described previously (Liu, et al., 2009, Mal Cell Biol 29(24):6401-12) were incubated with GST-IFNAR1 proteins (wild type or S535,539A mutant that migrates slower on SDS-PAGE due to the presence of four additional amino acids in the linker), ATP and kinase inhibitors (as indicated) for 30 min at 30° C. After that, GST-IFNAR1 were purified and incubated with in vitro translated and 35S-methionine-labeled 3-Trcp2 for 1 h at 4° C.; this binding was later analyzed by autoradiography and Coomassie staining. In vitro serine phosphorylation of GST-IFNAR1 (analyzed by autoradiography or IB with pS535 antibody) by cell extracts or PKD preparations and tyrosine phosphorylation of GST-PKD2 by Tyk2 was carried out and analyzed as described elsewhere herein.
For other binding assays, the lysates from 293T cells (treated for various times with IFN-α, 2000 IU/mL) underwent two rounds of immunodepletion of CK1α as described elsewhere (Liu, et al., 2009, Mol Cell Biol 29(24):6401-12). GST-IFNAR1 proteins (wild type or S535,539A mutant that migrates slower on SDS-PAGE due to the presence of four additional amino acids in the linker (Liu et al., 2009, Cell Host Microbe 5(1):72-83)) were expressed and purified from bacterial cells using glutathione Sepharose. Purified bacterial proteins (2 μg) were incubated in the presence of CK1α-depleted cell lysates (5 μg), unlabeled ATP (0.5 mM) in total volume of 20 μL (containing 25 mM Tris-HCL pH 7.5, 5 mM MgCl2, 100 mM KCl, 1 mM EGTA, 1 mM Na3VO4, 0.1 mM DTT and 3.5% glycerol) for 30 min at 30° C. When indicated, the following kinase inhibitors were added to the reaction in I pi, of DMSO to the final concentration indicated: H89 (200 nM), BAY43-9006 (50 nM), Bis-I (25 nM), Gö6976 (25 nM), LY294002 (1.5 μM), SP600125 (100 nM), D4476 (400 nM), SB203580 (100 nM). The reactions were stopped by placing the tubes on ice and adding 150 μL of ice-cold binding buffer (PBS supplemented with 0.1% NP40 and 50 mM NaF) and incubated with glutathione Sepharose beads (20 μL) for 2 h at 4° C. The beads were then washed three times with 0.5 mL of binding buffer and incubated with 2 μL of in vitro translated and 35S-methionine-labeled13-Trcp2 for 1 h at 4° C. Beads were then washed three times with 1 mL of binding buffer, and the proteins were eluted using Laemmli buffer, resolved by SDS-PAGE, and analyzed by autoradiography and Coomassie staining.

The test system of test [8] is vesicular stomatitis virus (VSV). Format: cell-based. The conditions noted are these: human 2fTGH cells, IFN-α 25-100 U/ml, titer 24 hr after treatments.
The subject of test [9] is IFN signaling. As to the kind of experiment: Sangivamycin effect on IFN signaling (FIGS. 37-38).
The target in test [10] is T1, PKD2. As to the kind of experiment: Sangivamycin inhibition of PKD2 (FIGS. 37-38).

As for `O=C1NCCCc2c1oc1ccc(O)cc21` [CID755673], the “inhibition of / specificity against PKD” value in test [1] was “high specificity”. In addition, the “rate of proteolytic turnover (ligand-stimulated degradation) of IFNAR1” value in test [2] is recorded as “appreciable decrease”. The “ISRE-driven luciferase transcriptional activity” value in test [3] is “robustly augmented”. Besides, the “ligand-induced Ser535 phosphorylation of endogenous IFNAR1” value in test [4] (293T cells, inhibitor pre-treatment, IFN-α) is listed as “significant inhibition”. Further, the “ligand-induced phosphorylation of Stat1” value in test [5] is recorded as “noticeably prolonged”.
Consider `Cn1c2ccccc2c2c3c(c4c5ccccc5n(CCC#N)c4c21)CNC3=O` [Gö6976], for which the “inhibition of / specificity against PKD” value in [1] is reported as “shown to inhibit”. Also, in test [4] (U3A cells stably expressing Flag-IFNAR1, inhibitor pre-treatment), the “induction of Ser535 phosphorylation of Flag-IFNAR1 by IFN-α” value is “noticeably decreased”. Moreover, the “basal Ser535 (degron) phosphorylation of overexpressed IFNAR1” value in test [4] (U3A cells stably expressing Flag-IFNAR1, no ligand) is recorded as “neither the PKD inhibitor Gö6976 nor siRNA against PKD2 decreases”. Also, the “in vitro phosphorylation of GST-IFNAR1 on Ser535 by GST-PKD2” value in test [6] was “decreased the efficacy of IFNAR1 phosphorylation in a dose dependent manner”. Also, the “recruitment of β-Trcp2 to GST-IFNAR1 (phosphorylation-binding assay)” value in test [7] is “dramatic inhibition”.
Take `O.O.O.O.O.O.O.O.O.O=C([O-])[C@@H]1[O][Sb](=[O])([O][Sb]2(=[O])[O][C@H]([C@H](O)CO)[C@H](O)[C@H](C(=O)[O-])[O]2)[O][C@H]([C@H](O)CO)[C@@H]1O.[Na+].[Na+].[Na+]` (stereo partly shown) [SSG]: the “protective effect of IFN-α against VSV (viral titer)” value in test [8] is “potentiates the protective effect”.
With `NC(=O)c1cn([C@@H]2O[C@H](CO)[C@@H](O)[C@H]2O)c2ncnc(N)c12` [sangivamycin], the “efficiency of IFN signaling” value in test [9] is listed as “increases the efficiency of IFN signaling”. The “inhibition of PKD2” value in [10] was “inhibits”.

The values are drawn from patent US20120014911A1, “Regulators of the Interferon-Alpha Receptor 1 (IFNAR1) Chain of the Interferon Receptor” (priority 2009, published 2012).
